Results published in article PMC8252719, “Macrocyclic FKBP51 Ligands Define a Transient Binding Mode with Enhanced Selectivity” (Angewandte Chemie (International Ed. in English), 2021).
Where two headings read alike, the source gives them in different places.

What was measured:
[1] = target: T1, FKBP51FK1 (Homo sapiens, UniProt Q13451); experiment: competitive fluorescence polarization assay, FKBP51FK1; format: binding
T1 sequence (Q13451 42-130 limits assumed): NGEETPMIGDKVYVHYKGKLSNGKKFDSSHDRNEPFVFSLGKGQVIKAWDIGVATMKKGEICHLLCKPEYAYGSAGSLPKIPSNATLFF
Procedure: Table S1. Ki values were determined by a competitive fluoresc ence polarization assay.
4.1 Binding curves of 13a, c and d […]

[2] = target: FKBP12 (Homo sapiens, UniProt P62942); experiment: competitive fluorescence polarization assay, FKBP12; format: binding; conditions: for binding to FKBP12 (in words): fluorescence polarization assay
[3] = target: FKBP12.6 (Homo sapiens, UniProt P68106); experiment: competitive fluorescence polarization assay, FKBP12.6; format: binding; conditions: for binding to FKBP12.6 (in words): fluorescence polarization assay
[4] = target: T1, FKBP51FK1; experiment: isothermal titration calorimetry (ITC); format: binding
Procedure: 1. ITC of compounds 13a and 13d
Figure S1. A) Binding of compound 13a to FKBP51FK1 determined by isothermal titration calorimetry at 25 °C. A 20 µM solution FKBP51FK1 formulated in 20 mM
HEPES pH 8.0, 20 mM NaCl, 5% glycerol and 2% DMSO was placed in the sample cell of a PEAK-ITC instrument. The syringe was filled with a 200 µM solution of
13a formulated in the same buffer. After equilibration the compound was titrated into the sample cell by 12 injection s of 3 µl each. The obtained data was analyzed
Binding of compound 13d to FKBP51FK1 determined by isothermal titration calorimetry at 25 °C. A 13 µM solution FKBP51FK1 formulated in 20 mM HEPES pH
8.0, 20 mM NaCl, 5% glycerol and 2% DMSO was placed in the sample cell of a PEAK -ITC instrument. The syringe was filled with a 10 0 µM solution of 13d
formulated in the same buffer. After equilibration the compound was titrated into the sample cell by 12 injections of 3 µl each. The obtained data was analyzed using […]

[5] = system: phorbol/ionomycin-induced IL8 secretion in Jurkat cells; experiment: immunostimulation/suppression assay in Jurkat cells (IL8 secretion); format: cell-based, human; conditions: IL8 ELISA; for effect on phorbol/ionomycin-induced IL8 secretion (compound on its own): 50 ng/ml PMA and 750 ng/ml Ionomycin, six hours
Procedure: Importantly, unlike the pan‐selective FKBP ligand [4.3.1]16h ^[21]
5.1 Immunostimulation/suppression assays in JURKAT cells
Figure S6A. Cellular analysis of compound FK[431]-16h in Jurkat cells
150 000 Jurkat cells were seeded in a 96 well plate in 180 µl and treated for 30 minutes with 13d or FK[431]-16h at the indicated […]
Cells were pelleted and supernatant collected and stored at -80°C. The IL8 content in the s upernatant was determined using the human IL8/CXCL8 DuoSet Elisa kit (RndSystems) according to manufacturers instructions . The sample volume of supernatant was adapted to 150 µl. Optical density wa s assessed using a Tecan Spark.
(§1) 5.2 IKKα inhibition in SIM-A9 cells
(§2) Cell culture and treatments
(§3) Murine microglia SIM-A9 cells were cultured at 37 °C, 5% CO2 in Dulbecco's Modified Eagle Medium (DMEM) high glucose with GlutaMAX (Thermo Fisher Scientific, 10566016), supplemented with 1 mM sodium pyruvate (Thermo Fisher Scientific, 11360-070), 10% fetal bovine serum (PAN Biotech, P30-8500), and 1% antibiotic-antimycotic (Thermo Fisher Scientific, 15240-062).
(§4) For the preparation of whole-cell lysates, confluent SIM-A9 cell cultures treated with the indicated compounds for 16 h in the above mentioned growth medium, were washed two times with ice-cold DPBS (Thermo Fisher Scientific, 14190-144) and lysed in an appropriate volume of RIPA buffer (Thermo Fisher Scientific, 89901), freshly supplemented with 1x cOmplete™ EDTA-free protease inhibitor cocktail (Roche, 4693132001) and 1x PhosSTOP™ phosphatase inhibitor cocktail (Roche, 4906837001) for 20 min on ice.
(§5) Subsequently, samples were centrifuged for 10 min at 4°C at 13000 rpm. The resulting supernatants were transferred to new 1.5 ml reaction tubes and prepared for separation with an SDS-PAGE system and analyzed by immunoblotting.
(§6) SDS-PAGE and immunoblotting
Separation of proteins was performed with the Criterion™ Vertical Electrophoresis Cell System (Bio-Rad, 1656001) on 4–20% Criterion™ TGX™ Precast Midi Protein Gels (Bio-Rad, 5671095). […]

[6] = system: IKKα phosphorylation in SIM-A9 cells; experiment: IKKα inhibition in SIM-A9 cells (Western blot); format: cell-based, murine
Procedure: We next explored if the macrocyclic ligands could interfere with the cellular functions of FKBP51. We therefore treated SIM‐A9 cells, which were recently discovered as a SAFit‐sensitive cellular model for stress‐mediated secretory autophagy. ^[24] […] (Figure 2 F and S6C). […]
as §1, §2, §3, §4, §5, §6
Separation of proteins was performed with the Criterion™ Vertical Electrophoresis Cell System (Bio-Rad, 1656001) on 4–20% Criterion™ TGX™ Precast Midi Protein Gels (Bio-Rad, 5671095). Immunoblotting was performed with the Trans-Blot Turbo Transfer System (Bio-Rad, 1704150) on 0.2 µm PVDF Trans-Blot Turbo Transfer Membranes (Bio-Rad, 1704157). For immunodetection, membranes were placed in TBS, supplemented with 0.05% Tween (Sigma-Aldrich, P9416) and 5% non-fat milk (Carl Roth, T145.1) for 1 h at RT and then incubated with the primary antibody diluted in TBS-T overnight at 4°C. Following primary antibodies were used:
Phospho-IKKα S176/phospho-IKKβ S177 (1:1000, Cell Signaling Technology, 2078), IKKα (1:1000, Cell Signaling Technology, 1682) and GAPDH (1:1000, Cell Signaling Techology, 5174).
Then, immunoblots were washed and probed with horseradish peroxidase- conjugated secondary antibody (1:10000, Cell Signaling Technology, 7074) for 1 h at RT. Immunoreactive protein bands were visualized using Clarity Western ECL Substrate (Bio-Rad, 1705061) or Clarity Max Western ECL Substrate (Bio-Rad, 1705062). Determination of the band intensities was performed with […]

[7] = target: T1, FKBP51FK1; conditions: values derived from literature; read-out: FKBP51FK1 K i; cited from earlier work
Excerpt: Table 1 Affinities of the macrocycles with amino acid containing linker determined by a competitive fluorescence polarization assay. | column: FKBP51FK1 / K i [μM]^[a]

[8] = target: T2, FKBP52FK1 (Homo sapiens, UniProt Q02790); experiment: competitive fluorescence polarization assay, FKBP52FK1; format: binding; conditions: Table 1 compounds tested up to 80 μM
T2 sequence (Q02790 50-138 limits assumed): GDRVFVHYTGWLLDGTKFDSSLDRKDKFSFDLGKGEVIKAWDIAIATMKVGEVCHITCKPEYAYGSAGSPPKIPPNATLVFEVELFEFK

[9] = meta B ring substituent R6, read-out: FKBP51 Ki (Table S1)

Chain of FKBP12.6 (P68106 whole entry): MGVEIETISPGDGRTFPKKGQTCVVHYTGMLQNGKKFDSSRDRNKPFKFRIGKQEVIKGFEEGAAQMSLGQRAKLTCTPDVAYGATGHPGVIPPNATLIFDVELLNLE
Chain of FKBP12 (P62942 whole entry): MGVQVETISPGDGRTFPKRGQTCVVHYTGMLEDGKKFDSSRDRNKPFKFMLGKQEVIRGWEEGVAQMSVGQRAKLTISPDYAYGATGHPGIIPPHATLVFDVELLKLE

Row | Compound | Ki [1, 9] | Ki ([1]; ± = standard error from three independent measurements [b] or error from two independent measurements [d], SEM, read-out: FKBP51FK1 K i) | Ki ([2]; competitive fluorescence polarization assay, >80 μM = highest measurable concentration before compound precipitation, ± = standard error from three independent measurements, read-out: FKBP12 K i) | Ki ([3]; competitive fluorescence polarization assay, >80 μM = highest measurable concentration before compound precipitation, ± = standard error from three independent measurements, read-out: FKBP12.6 K i) | Kd ([4]; 25 °C, 20 mM HEPES pH 8.0, 20 mM NaCl, 5% glycerol, 2% DMSO, one-site binding model, mean ± SD from 3 independent experiments, SD, read-out: Kd-value for FKBP51FK1 by ITC) | Kd ([4]; isothermal calorimetry, enthalpy-driven, read-out: K d for FKBP51 by ITC) | effect on phorbol/ionomycin-induced IL8 secretion (compound on its own) [5] | effect on the immunosuppressive activity of FK506 ([5]; 30 minutes pretreatment, then 0.2 nM FK506, PMA/Ionomycin) | concentration at which apparent maximal inhibition of IKKα phosphorylation was already reached ([6]; SIM-A9 cells, lowest tested concentration) | inhibition of IKKα phosphorylation (in words) ([6]; murine microglia SIM-A9 cells, 16 h treatment, Western blot, three (macrocycles) or six (SAFit) independent cellular assays) | Ki [7] | binding to FKBP12 (in words) [2] | binding to FKBP12.6 (in words) [3] | binding to FKBP52FK1 (in words) [8]
1 | COc1ccc(CC[C@H]2OC(=O)[C@@H]3CCCCN3C(=O)[C@@H](C3CCCCC3)NC(=O)C3(CC3)NC(=O)COc3cccc2c3)cc1OC [13 d] | 290 nM | 400 ± 50 nM | > 80000 nM | > 80000 nM | 600 ± 100 nM | 600 nM | neither immunostimulatory nor immunosuppressive | did not block | ≤ 1 µM | inhibited | – | – | – | –
2 | C=CC[C@@H]1/C=C(\C)C[C@H](C)C[C@H](OC)[C@H]2O[C@@](O)(C(=O)C(=O)N3CCCC[C@H]3C(=O)O[C@H](/C(C)=C/[C@@H]3CC[C@@H](O)[C@H](OC)C3)[C@H](C)[C@@H](O)CC1=O)[C@H](C)C[C@@H]2OC [FK506, reference compound] | – | – | – | – | – | – | blocks | – | – | – | 104 nM | – | – | –
3 | COc1ccc(CC[C@H]2OC(=O)[C@@H]3CCCCN3C(=O)[C@@H](C3CCCCC3)NC(=O)C(C)(C)NC(=O)COc3cc(O)cc2c3)cc1OC [compound 25] | 370 nM | – | – | – | – | – | – | – | – | – | – | no binding | no binding | no binding
4 | COc1cc2cc(c1)[C@@H](CCc1ccc(OC)c(OC)c1)OC(=O)[C@@H]1CCCCN1C(=O)[C@@H](C1CCCCC1)NC(=O)C(C)(C)NC(=O)CO2 [compound 26] | 390 nM | – | – | – | – | – | – | – | – | – | – | no binding | no binding | no binding
